Columns and labels:
Th17 cells = assay: Cytokine staining of genipin-treated skewed Th17 cells; format: cell-based, Mouse; settings: data not shown
Protocol: Mouse lymph nodes and spleens were harvested, and naïve CD4 or CD8 T cells isolated via magnetic bead separation (STEMCELL Technologies) and activated in α-CD3 (10 μg/ml) and α-CD28 (1 μg/ml) pre-coated 96-well plates. Skewing conditions were as follows: Th1 cells/Tc1 cells ([…] 10 μ/ml α-IL-4), Th2 cells/Tc2 cells (20 ng/ml IL-4 and 10 μ/ml α-IFN-γ), Th17 cells/Tc17 cells (20 ng/ml IL-6, 1.25 ng/ml […], 20 ng/ml IL-1β, 20 ng/ml IL-23, 10 μg/ml α-IFN-γ and 10 μg/ml α-IL-4), and Treg cells (5 ng/ml TGF-β, 10 μg/ml α-IFN-γ and 10 μg/ml α-IL-4) in the indicated medium. Cells were cultured for 4-5 days followed by treatment with genipin (3.125 μM, 6.25 μM, 12.5 μM) or DMSO for 12-16 hours.
(§1) Monoclonal antibodies were purchased from BD Biosciences or eBioscience. For intracellular cytokine staining (ICS), cells were first restimulated by PMA/ionomycin for 5 hours in the presence of GolgiStop (BD Biosciences), followed by surface epitope staining markers before being fixed/permeabilized (BD Cytofix/Cytoperm™) and stained with antibodies targeting intracellular antigens. Cells were finally fixed with 1.5% formaldehyde for 10 minutes at room temperature and analyzed on a FACSVerse flow cytometer (BD Bioscience). Data were analyzed using FlowJo software (Tree Star Inc.).

Tc1 cells [1] = assay: Immunoblotting of PI3K/AKT/mTOR and STAT4 in Tc1 cells; format: cell-based, Mouse
Protocol: The protein concentrations of the total cell lysate or the extracted histones were determined by a Bradford assay (Bio-Rad Laboratories). Immunoblot analysis was performed with 10% sodium dodecyl sulfate-polyacrylamide gel electrophoresis, followed by overnight incubation with primary antibodies (1:1000 dilution) and incubation with horseradish peroxidase-conjugated secondary antibodies (1:5000 dilution; GeneTex). The polyvinylidene difluoride membranes were probed with antibodies against UCP2, pPI3K/PI3K, pAKT/AKT, pmTOR/mTOR, pSTAT1/STAT1, pSTAT4/STAT4, and H3K9Ac, which were purchased from Cell Signaling Technology or Genetex. Actin or Lamin B1 (Merck-Millipore) was used as the loading control. Signals were detected using an ECL solution (GE) and optical density quantified using ImageJ software.

Pan18 cells = assay: Orthotopic PDAC tumor model (Pan18 cells injected in pancreas); format: in vivo, mice; settings: for Survival, bioluminescent tumor growth and tumor weight: FIG. 5H-5J
Protocol: as §1
For Pan18-subcutaneous implantation, 5×10^5 Pan18 cells were administered to wild-type (WT) or IL-17^−/− mice. Genipin (5 mg/kg, 10 mg/kg, or 30 mg/kg, i.p., every two days) was administered to Pan18-bearing mice for 3 weeks. For 3036-subcutanous implantation, 2×10^5 3036 cells were administered to WT mice. Genipin (10 mg/kg, i.p., every two days) and recombinant anti-IL-17 receptor antibody (αIL-17RA) (1 mg/kg, i.v., once a week) were administered to 3036-bearing mice for 3 weeks. Tumor volumes were evaluated every 2 days. For the orthotopic tumor modelling, mice pancreases were injected with 2×10^5 Pan18 cells and monitored for tumor growth weekly using IVIS kinetics imaging system (Caliper Life-Sciences). Genipin (10 mg/kg, i.p., every two days) or αIL-17RA (1 mg/kg, i.v., once a week) was administered 1 week after tumor implantation. Mice were sacrificed 35 days after tumor induction and tumors weighed. For spontaneous pancreatic cancer model, Cre-dependent conditional knockin mutations of KrasG12D Kras^+/LSLG12D mice (B6; 129-Kras2) were obtained from the Mouse Models of Human Cancer Consortium. Elas-CreERT; Kras^+/LSLG12D mice was generated by breeding Kras^+/LSLG12D mice with Elas-CreER mice obtained from the Level Transgenic Center. To induce the expression of Kras^+/LSLG12D in acinar cells, 5-week-old Elas-CreERT; Kras^+/LSLG12D male mice were injected with 100 μl of tamoxifen (20 mg/ml, i.p., three times per week) for 1 week. To induce chronic inflammation and tumors, 100 μl of cerulein (50 μg/ml, i.p., six times per week) (BACHEM) was given to the mice for 3 weeks. Then, the mice were injected with genipin (10 mg/kg, i.p., every two days) and αIL-17RA (1 mg/kg, i.v., once a week) until the end of the experiment, and overall survival was monitored. For genetically CD4/CD8-specific UCP2 deletion tumor modelling, we generated CD4Cre×UCP2^f/f mice by crossing loxP-UCP2-loxP mice with CD4Cre mice. CD4Cre×UCP2^f/f, WT, and loxP control mice underwent subcutaneous implantation of 2×10^5 Pan18 cells, followed by treatment with αIL-17RA (1 mg/kg, i.v., once a week) for 3 weeks. For melanoma modelling, IL-17/-and WT mice underwent subcutaneous implantation of 5×10^5 B16F10 cells, followed by treatment with genipin (10 mg/kg, i.p., every two days) for 3 weeks. For CD8 depletion tumor modelling, IL-17^−/− mice underwent subcutaneous implantation of 2×10^5 Pan18 cells, followed by treatment with genipin (10 mg/kg, i.p., every two days) and CD8 neutralizing antibody (5 mg/kg, i.v., once a week) for 3 weeks. Tumor volumes were evaluated every 3 days.

Tc1 cells [2] = assay: RNA-seq gene expression analysis of genipin-treated Tc1 cells; format: cell-based, Mouse
Protocol: For RNA-seq analysis, the differential gene expression analysis was conducted by RNA-seq quantification following the procedure of Illumina and was performed by Genomics (Taiwan). Low-quality bases and sequencing adapters in the raw data generated from the Illumina sequencer were removed, and the final library quality was assessed on the Agilent Bioanalyzer 2100 system. The gene expression profiles in the genipin-treated and control Tc1 cells were analyzed and compared. The differentially expressed genes were calculated by EBSeq, and functional analysis, such as (gene ontology) GO analysis, was performed using cluster Profiler. For real-time PCR, total RNA was extracted using the RNeasy Micro Kit (Qiagen), and cDNA was synthesized with the PrimeScript™ RT reagent kit (TakaRa). Real-time PCR amplification of IFN-γ was performed in triplicate using TaqMan Gene Expression Assay (Mm01168134_m1) in a Step One Plus system (Applied Biosystems). 18S primers were used as endogenous controls, and the relative gene expression was calculated using the 2^ΔΔCt method.

[3] = genipin-treated Tc1 cells, FIG. 2D

What does the source list for `COC(=O)C1=CO[C@@H](O)[C@@H]2C(CO)=CC[C@H]12` [genipin]?
IFN-γ in Th17 cells (Th17 cells): increased IFN-γ; IL-17 expression in Th17 cells (Th17 cells): without an impact on IL-17 expression; STAT4 levels / activation (Tc1 cells [1]; genipin 12 hours, FIG. 2Q): STAT4 activation; Expression of mTOR and its upstream kinases PI3K and AKT (Tc1 cells [1]; genipin-treated Tc1 cells): increased; Survival, bioluminescent tumor growth and tumor weight (Pan18 cells; IL-17−/− mice, genipin 10 mg/kg i.p. every two days, 3 weeks): significant benefit; Tumor-infiltrating population of Tc1 cells (Pan18 cells; IL-17−/− mice, genipin 10 mg/kg, FIG. 5K): increased; Tumor-infiltrating population of Th1 cells (Pan18 cells; IL-17−/− mice, genipin 10 mg/kg, FIG. 5L): increased; Tumor-infiltrating population of MDSC (Pan18 cells; IL-17−/− mice, genipin 10 mg/kg, FIG. 5N): increased; Survival, bioluminescent tumor growth and tumor weight (Pan18 cells; WT mice, genipin 10 mg/kg alone (singular UCP2 targeting)): no impact; Expression of genes that control IFN-γ signaling, leukocyte activation and bioenergetic metabolism (GOBP enrichment) (Tc1 cells [2]; genipin 12.5 μM, FIG. 2C): correlated positively; Expression of genes related to T cell activation and migration (Tbx21, Ccl5, Eomes, Il12rb2, Ctla2a, Ctla2b) (Tc1 cells [2]; [3]): augmented the expression; Expression of glycolytic pathway genes (Hk2, Gck, Pfkl, Aldoc, Pgam1, Eno2, Ldha) (Tc1 cells [2]; [3]): increased expression
